Here are results for 21 molecules from ChEMBL document CHEMBL2028040, “Malaria Box”.

Molecules are shown by their SMILES.

Series [1] deals with Plasmodium falciparum. In words: MMV: Inhibition of Plasmodium falciparum 3D7 at 5uM compound concentration. In kind it is functional.
Series [2] concerns Plasmodium falciparum. In words: MMV: Inhibition of Plasmodium falciparum 3D7 (EC50). In kind it is functional, organism-based.
A further series relates to Trypanosoma cruzi. As to the kind of experiment: MMV: Inhibition of Trypanosoma cruzi (Tulahuen C4 LacZ) (Chagas in vitro). In kind it is functional, organism-based.
For series [3], the system named is Trypanosoma brucei brucei. As to the kind of experiment: MMV: Inhibition of Trypanosoma brucei brucei (Squib 427) (HAT in vitro). The format is functional, organism-based.
Series [4] relates to Trypanosoma brucei rhodesiense. In words: MMV: Inhibition of Trypanosoma brucei rhodesiense (STIB 900) (HAT in vitro). In kind it is functional, organism-based.
The test system of a further series is Leishmania infantum. In words: MMV: Inhibition of Leishmania infantum (MHOM/MA/BE/67) in vitro. The format is functional, organism-based.
A short description of series [5]: MMV: Cytotoxicity against human fibroblasts (MRC-5) cells. The note with it: MRC-5 cells (human fibroblasts).

As a reminder, the inhibition is the drop in the measured response relative to a control, in per cent. A high value points to strong suppression. As usually defined, the EC50 is the concentration needed to bring the measured effect to its halfway point. What is called IC50 is the concentration needed to halve the response being measured. Low values mean higher potency, high ones lower potency.

The molecule `O=C(NCc1ccco1)C1CCN(S(=O)(=O)c2ccc(Cl)cc2)CC1` yielded an inhibition at 5 µM in the series on Plasmodium falciparum [1] of 94%. In the series with Plasmodium falciparum [2], the EC50 was found to be 0.891 µM. For the same molecule, the IC50 is over 32 µM in the series on Trypanosoma cruzi; over 32 µM in series [3]; 28.9 µM in series [4]; over 32 µM in the series on Leishmania infantum; over 32 µM in series [5].

In the series with Plasmodium falciparum [1], `CCOc1ccc(CN2CCN(CC(O)COc3ccc(OCC(O)CN4CCN(Cc5ccc(OCC)cc5)CC4)cc3)CC2)cc1` (configuration not stated) had an inhibition at 5 µM of 97%. In addition, the EC50 in the series with Plasmodium falciparum [2] stood at 1.2 µM. The IC50 in the series with Trypanosoma cruzi worked out at 2.54 µM; in series [3], 3.52 µM; in series [4] it was 0.964 µM; with Leishmania infantum, 2.52 µM; in series [5] it was 10.7 µM.

`CC(=O)NCCc1nc2ccccc2n1Cc1ccc(C(C)C)cc1` registered an inhibition at 5 µM in the series with Plasmodium falciparum [1] of 97%. The same molecule yielded an EC50 in the series on Plasmodium falciparum [2] of 1.79 µM. The concentration for half-maximal inhibition (IC50) (in the series with Trypanosoma cruzi; in series [3]; in series [4]; in the series on Leishmania infantum; in series [5]) was over 32 µM each time.

In the case of `COc1nc(Nc2ccc(C(C)C)cc2)nc(OC)n1`, in the series on Plasmodium falciparum [1], 5 µM produced 88% inhibition. The EC50 with Plasmodium falciparum [2] came out at 1.14 µM. For the same molecule, the IC50 was 24.5 µM in the series with Trypanosoma cruzi; 10.9 µM in series [3]; 10.7 µM in series [4]; over 32 µM in the series with Leishmania infantum; over 32 µM in series [5].

Take `CCOC(=O)c1cnc2ccc(Cl)cc2c1NCCCN(C)C`: in the series with Plasmodium falciparum [1], the inhibition at 5 µM was found to be 98%. In addition, a half-maximal effect with Plasmodium falciparum [2] (EC50) was put at 1.19 µM. Also, the concentration for half-maximal inhibition (IC50) is 16.2 µM in the series with Trypanosoma cruzi; 7.4 µM in series [3]; 4.19 µM in series [4]; 16.1 µM in the series on Leishmania infantum; over 32 µM in series [5].

`O=C1c2ccccc2C2=Nc3ccccc3SC(c3cccc(F)c3)C12` (configuration not stated): in the series on Plasmodium falciparum [1], the inhibition at 5 µM came out at 94%. Moreover, the EC50 in the series on Plasmodium falciparum [2] came out at 0.415 µM. In addition, the IC50 in the series with Trypanosoma cruzi is over 32 µM; in series [3], over 32 µM; in series [4], 7.17 µM; in the series with Leishmania infantum, over 32 µM; in series [5], over 32 µM.

As to `Cc1ccccc1OCCSc1nc2ccc(NC(=O)c3ccccc3)cc2s1`, testing at 5 µM with Plasmodium falciparum [1] gave an inhibition of 93%. This molecule gave an EC50 with Plasmodium falciparum [2] of 1.12 µM. Moreover, the IC50 (in the series on Trypanosoma cruzi; in series [3]; in series [4]; in the series with Leishmania infantum; in series [5]) was over 32 µM in each case.

For `Cc1ccc(Cn2c(N3CCC(C(=O)NCc4cccs4)CC3)nc3ccccc32)cc1`, the inhibition at 5 µM with Plasmodium falciparum [1] amounted to 73%. For the same molecule, the midpoint of the response in the series on Plasmodium falciparum [2], the EC50, lay at 0.947 µM. For the same molecule, the half-inhibitory concentration (IC50) in the series on Trypanosoma cruzi was over 32 µM; in series [3] it was over 32 µM; in series [4], over 32 µM; with Leishmania infantum, 25.4 µM; in series [5] it was over 32 µM.

In the case of `Cc1ccc2nc(C)cc(Nc3cccc(C(F)(F)F)c3)c2c1`, the inhibition at 5 µM in the series with Plasmodium falciparum [1] amounted to 98%. In addition, in the series with Plasmodium falciparum [2], a half-maximal effect (EC50) was put at 1.17 µM. The half-inhibitory concentration (IC50) in the series on Trypanosoma cruzi was found to be 5.96 µM; in series [3], 4.12 µM; in series [4], 3.86 µM; in the series on Leishmania infantum, 3.06 µM; in series [5], 28.9 µM.

Consider `CC1CC(C)CN(C(=O)c2ccc(Cl)cc2Cl)C1` (configuration not stated), for which, in the series on Plasmodium falciparum [1], at 5 µM the inhibition was 95%. Further, it took 0.756 µM to reach a half-maximal effect in the series on Plasmodium falciparum [2] (EC50). Further, the IC50 with Trypanosoma cruzi is 24.7 µM; in series [3], over 32 µM; in series [4], over 32 µM; with Leishmania infantum it was 17.3 µM; in series [5] it was over 32 µM.

`CCCCc1ccc(NS(=O)(=O)c2cc3c4c(c2)CCN4C(=O)CC3)cc1` displayed an inhibition at 5 µM in the series on Plasmodium falciparum [1] of 96%. This molecule yielded an EC50 with Plasmodium falciparum [2] of 0.538 µM. The IC50 is 13.6 µM with Trypanosoma cruzi; over 32 µM in series [3]; 16.3 µM in series [4]; 19 µM with Leishmania infantum; 5.61 µM in series [5].

`CCn1c2c(c(=N)c3c1CCC3)CCCC2` displayed an inhibition at 5 µM in the series with Plasmodium falciparum [1] of 77%. The same molecule showed an EC50 in the series on Plasmodium falciparum [2] of 0.695 µM. Moreover, the IC50 in the series with Trypanosoma cruzi was 9.02 µM; in series [3] it was over 32 µM; in series [4], over 32 µM; in the series on Leishmania infantum, over 32 µM; in series [5], 32 µM.

As to `CCOc1ccccc1CNC(=O)C1c2ccccc2C(=O)N(CC(C)C)C1c1cccs1` (configuration not stated), the inhibition at 5 µM with Plasmodium falciparum [1] was found to be 97%. Further, the response with Plasmodium falciparum [2] was half-maximal at 1.32 µM (EC50). For the same molecule, the IC50 was 14.9 µM in the series on Trypanosoma cruzi; 16.1 µM in series [3]; 16.1 µM in series [4]; over 32 µM in the series with Leishmania infantum; over 32 µM in series [5].

In the series on Plasmodium falciparum [1], `O=c1nc(C=Cc2ccc(Cl)cc2)oc2ccccc12` registered an inhibition at 5 µM of 76%. This molecule also showed an EC50 in the series on Plasmodium falciparum [2] of 0.995 µM. The IC50 was over 32 µM in the series with Trypanosoma cruzi; over 32 µM in series [3]; 27.4 µM in series [4]; over 32 µM in the series with Leishmania infantum; over 32 µM in series [5].

Take `O=C(NCc1ccco1)C1CCN(S(=O)(=O)c2ccc(Br)cc2)CC1`: the inhibition at 5 µM in the series on Plasmodium falciparum [1] amounted to 93%. Besides, the EC50 in the series with Plasmodium falciparum [2] stood at 0.939 µM. Also, the half-maximal inhibitory concentration (IC50) (in the series with Trypanosoma cruzi; in series [3]; in series [4]; in the series with Leishmania infantum; in series [5]) was over 32 µM in each case.

Molecule `COc1ccc(-c2nc3cc(Cc4ccc5[nH]c(-c6ccc(OC)cc6)nc5c4)ccc3[nH]2)cc1` showed an inhibition at 5 µM with Plasmodium falciparum [1] of 98%. Besides, the EC50 in the series on Plasmodium falciparum [2] was 0.176 µM. Besides, the IC50 in the series with Trypanosoma cruzi is under 0.125 µM; in series [3], 0.179 µM; in series [4] it was under 0.125 µM; with Leishmania infantum, 4.06 µM; in series [5], 4.76 µM.

In turn, `COc1ccc2c(c1OC)C(=O)N1c3ccccc3N=C(c3ccc(C)cc3)CC21` (configuration not stated) showed an inhibition at 5 µM in the series with Plasmodium falciparum [1] of 93%. Also, a half-maximal response in the series on Plasmodium falciparum [2] (EC50) required 1.24 µM. Moreover, the IC50 in the series on Trypanosoma cruzi is over 32 µM; in series [3], 4.28 µM; in series [4] it was 3.83 µM; in the series with Leishmania infantum it was over 32 µM; in series [5] it was over 32 µM.

`COc1ccc(CCNC(=O)c2cc(S(=O)(=O)N3CC(C)CC(C)C3)ccc2Sc2ccc(F)cc2)cc1OC` (configuration not stated) came in with an inhibition at 5 µM with Plasmodium falciparum [1] of 97%. The EC50 in the series with Plasmodium falciparum [2] is 0.632 µM. Further, the IC50 (with Trypanosoma cruzi; in series [3]; in series [4]; in the series on Leishmania infantum; in series [5]) was over 32 µM in each case.

Molecule `CCCCCCOC(=O)C1=C(C)NC(=O)NC1c1ccccc1F` (configuration not stated) yielded an inhibition at 5 µM in the series with Plasmodium falciparum [1] of 95%. The same molecule had an EC50 in the series on Plasmodium falciparum [2] of 0.106 µM. Besides, the half-inhibitory concentration (IC50) in the series on Trypanosoma cruzi is over 32 µM; in series [3] it was over 32 µM; in series [4] it was over 32 µM; with Leishmania infantum it was 18.4 µM; in series [5], over 32 µM.

`CCCN(CCC)CCCNC(=O)c1cc2c(-c3ccc(OC)c(OC)c3)nn(C)c2s1` returned an inhibition at 5 µM in the series with Plasmodium falciparum [1] of 98%. The molecule also gave an EC50 in the series on Plasmodium falciparum [2] of 1.43 µM. Also, the IC50 was 27.5 µM with Trypanosoma cruzi; over 32 µM in series [3]; 14.6 µM in series [4]; 16 µM in the series on Leishmania infantum; over 32 µM in series [5].

Consider `C=CCc1c(C)nc2ccccc2c1O`, for which the inhibition at 5 µM in the series on Plasmodium falciparum [1] was 85%. The midpoint of the response in the series on Plasmodium falciparum [2], the EC50, lay at 1.29 µM. Moreover, the IC50 (in the series with Trypanosoma cruzi; in series [3]; in series [4]; with Leishmania infantum; in series [5]) was over 32 µM each time.
